{"source": "patent US20250387355A1", "about": "(SpringWorks Therapeutics Inc., priority 2024, published 2025)", "system": "NF1-associated plexiform neurofibromas (PNs)", "test": "Phase 2b trial of mirdametinib: efficacy by volumetric MRI per REiNS criteria (BICR)", "assay_type": "in vivo, human", "conditions": "for DoR ≥12 months, %: responders, first DoR line (r12)", "procedure": "Study treatment was administered orally at a twice daily (BID) dose specified in the table below. Dosing was on a 28-day Cycle (4-week course) with a 3 week on/1 week off schedule. The treatment period will last for up to 24 Cycles followed by a 30-day Safety Follow-Up period.\nA partial response was defined as PN decrease ≥20% compared to baseline using centrally read MRI volumetric analysis.\nThe major efficacy outcome measure was confirmed objective response rate (ORR), defined as the percentage of patients with complete response (disappearance of the target PN) or confirmed partial response (≥20% reduction in PN volume confirmed at a subsequent tumor assessment within 2-6 months during the 24-cycle treatment phase). Responses were assessed by blinded independent central review (BICR) using volumetric magnetic resonance imaging (MRI) analysis per Response Evaluation in Neurofibromatosis and Schwannomatosis (REiNS) criteria. A secondary efficacy objective was to determine the duration of response for patients who achieved a confirmed objective response."}
{"compound": "O=C(NOC[C@H](O)CO)c1ccc(F)c(F)c1Nc1ccc(I)cc1F", "note": "(single isomer, unassigned) [mirdametinib]", "values": [{"measurement": "Confirmed Complete Response, n (%)", "setting": "Adult (N = 58)", "value": 0}, {"measurement": "Confirmed Objective Response Rate per REINS criteria by BICR, (%)", "setting": "Adult (N = 58)", "value": "(41) %"}, {"measurement": "Confirmed Partial Response, (%)", "setting": "Adult (N = 58)", "value": "(41) %"}, {"measurement": "DoR ≥12 months, %", "setting": "Adult", "value": "(88%)"}, {"measurement": "Confirmed Complete Response, n (%)", "setting": "Pediatric (N = 56)", "value": 0}, {"measurement": "Confirmed Objective Response Rate per REINS criteria by BICR, (%)", "setting": "Pediatric (N = 56)", "value": "(52) %"}, {"measurement": "Confirmed Partial Response, (%)", "setting": "Pediatric (N = 56)", "value": "(52) %"}, {"measurement": "DoR ≥12 months, %", "setting": "Pediatric", "value": "(90%)"}]}
